Laboratory results published in patent US12570655B2, “Cysteine covalent modifiers of AKT1 and uses thereof” (Terremoto Biosciences, Inc., priority 2023, dated 2026).
Read-outs that look alike come from different tables or passages of the source.

What was measured:
Format in all cases: cell-based
[1] = system: LAPC4 prostate cancer cells; assay: Antiproliferative effects in LAPC4 cells (CellTiter Glo); conditions: LAPC4 cells (AKT1 E17K allele), read-out: LAPC4 proliferation IC50
Method in brief: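 Seed 1,000 cells/well in IMDM/12% FBS/1% P/S; add compound dilutions (DMSO); incubate 72 h; read intracellular ATP with CellTiter Glo; fit luminescence to log(inhibitor)-response Hill curve for IC50.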

[2] = molecular target: T1, AKT2 (Homo sapiens, UniProt P31751); assay: Live cell AKT2 target engagement by NanoBRET competitive probe displacement; conditions: HEK293 cells transfected with kinase-NanoLuciferase fusion, 2 h at 37° C.
T1 construct: expressed in transfected cells; host or cells: HEK293
T1 sequence (P31751 whole entry, the tested form may be a part): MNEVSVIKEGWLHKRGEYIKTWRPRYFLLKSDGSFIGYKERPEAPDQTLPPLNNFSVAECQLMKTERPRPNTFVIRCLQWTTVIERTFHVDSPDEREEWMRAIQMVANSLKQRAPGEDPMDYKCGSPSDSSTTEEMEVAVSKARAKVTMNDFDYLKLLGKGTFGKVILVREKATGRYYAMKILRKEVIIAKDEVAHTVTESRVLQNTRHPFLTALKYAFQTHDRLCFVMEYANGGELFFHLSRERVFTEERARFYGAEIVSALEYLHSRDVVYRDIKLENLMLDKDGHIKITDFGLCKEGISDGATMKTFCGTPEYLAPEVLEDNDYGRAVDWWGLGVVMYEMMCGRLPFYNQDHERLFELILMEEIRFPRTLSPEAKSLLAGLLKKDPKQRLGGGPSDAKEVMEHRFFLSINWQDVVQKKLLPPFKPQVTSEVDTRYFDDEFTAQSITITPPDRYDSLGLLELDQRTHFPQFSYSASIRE
Method in brief: (§1)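 IC50 reflects displacement of a fluorescent ATP-competitive tracer, dosed near its EC50, from kinase–NanoLuciferase fusions in live HEK293 cells. Cells were incubated with compound and tracer for 2 h at 37 °C, then E600/E460 BRET was read.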

[3] = molecular target: T2, AKT1 E17K (Homo sapiens, UniProt P31749, E17K); assay: Live cell AKT1 E17K target engagement by NanoBRET competitive probe displacement; conditions: HEK293 cells transfected with kinase-NanoLuciferase fusion, 2 h at 37° C.
T2 construct: expressed in transfected cells; host or cells: HEK293
T2 sequence (P31749 whole entry E17K, the tested form may be a part): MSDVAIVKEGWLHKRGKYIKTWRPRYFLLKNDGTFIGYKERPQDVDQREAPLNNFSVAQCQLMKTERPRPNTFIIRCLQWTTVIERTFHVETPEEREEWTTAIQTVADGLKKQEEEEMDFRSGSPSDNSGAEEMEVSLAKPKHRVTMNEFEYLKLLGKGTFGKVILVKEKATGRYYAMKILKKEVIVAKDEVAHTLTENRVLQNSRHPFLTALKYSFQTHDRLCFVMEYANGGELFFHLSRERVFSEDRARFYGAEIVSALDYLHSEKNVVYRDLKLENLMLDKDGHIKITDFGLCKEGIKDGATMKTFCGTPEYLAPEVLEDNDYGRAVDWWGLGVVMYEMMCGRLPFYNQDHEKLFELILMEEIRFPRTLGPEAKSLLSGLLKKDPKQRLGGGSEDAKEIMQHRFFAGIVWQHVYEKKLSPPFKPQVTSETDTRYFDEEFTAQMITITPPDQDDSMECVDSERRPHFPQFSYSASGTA
Method in brief: as §1

[4] = molecular target: T3, AKT1 WT (Homo sapiens, UniProt P31749); assay: Live cell AKT1 WT target engagement by NanoBRET competitive probe displacement; conditions: HEK293 cells transfected with kinase-NanoLuciferase fusion, 2 h at 37° C.
T3 construct: expressed in transfected cells; host or cells: HEK293
T3 sequence (P31749 whole entry, the tested form may be a part): as the sequence (P31749 whole entry E17K, the tested form may be a part) above, with K17E counted along it
Method in brief: as §1

**Q.** For C=CC(=O)N1CCC(N[C@H]2CCc3cc(-n4c(-c5cccnc5N)nc5ccc(N6CC[C@@H](F)C6)nc54)ccc32)CC1 [Example 194, 1-(4-{[(1S)-5-[2-(2-aminopyridin-3-yl)-5-[(3R)-3-fluoropyrrolidin-1-yl]imidazo[4,5-b]pyridin-3-yl]-2,3-dihydro-1H-inden-1-yl]amino}piperidin-1-yl)prop-2-en-1-one], which IC50 ([1]; Homo sapiens, LAPC4, 72 h) is on record?
**A.** 310 nM

**Q.** And the IC50 [2]?
**A.** 142 nM

**Q.** And the IC50 [3]?
**A.** 13.8 nM

**Q.** What about the IC50 [4] of the same compound?
**A.** 446 nM

**Q.** Which results are given for C=CC(=O)N1CCCC(N[C@H]2CCc3cc(-n4c(-c5cccnc5N)nc5ccc(-n6cccn6)nc54)ccc32)CC1 (single isomer, unassigned) [Example 81, 1-((*)-4-(((S)-5-(2-(2-aminopyridin-3-yl)-5-(1H-pyrazol-1-yl)-3H-imidazo[4,5-b]pyridin-3-yl)-2,3-dihydro-1H-inden-1-yl)amino)azepan-1-yl)prop-2-en-1-one]?
**A.** IC50 ([1]; 72 h): 7600 nM; IC50 [2]: 1200 nM; IC50 [3]: > 1000 nM; IC50 [4]: 93.2 nM

**Q.** What does the source list for C#CC1CC(N[C@H]2CCc3cc(-n4c(-c5cccnc5N)nc5ccc(-n6cccn6)nc54)ccc32)CCN1C(=O)C=C (single isomer, unassigned) [Example 111, 1-((2*,4*)-4-(((S)-5-(2-(2-aminopyridin-3-yl)-5-(1H-pyrazol-1-yl)-3H-imidazo[4,5-b]pyridin-3-yl)-2,3-dihydro-1H-inden-1-yl)amino)-2-ethynylpiperidin-1-yl)prop-2-en-1-one]?
**A.** IC50 ([1]; 72 h): 343 nM; IC50 [2]: 143 nM; IC50 [3]: 127 nM; IC50 [4]: 21.6 nM

**Q.** C=CC(=O)N1CC2COCC(C1)C2N[C@H]1CCc2cc(-n3c(-c4cccnc4N)nc4ccc(-n5cccn5)nc43)ccc21 (mixture of isomers) [Example 64, 1-(9-(((S)-5-(2-(2-aminopyridin-3-yl)-5-(1H-pyrazol-1-yl)-3H-imidazo[4,5-b]pyridin-3-yl)-2,3-dihydro-1H-inden-1-yl)amino)-3-oxa-7-azabicyclo[3.3.1]nonan-7-yl)prop-2-en-1-one] was tested. Which IC50 ([1]; Homo sapiens, LAPC4, 72 h) did it give?
**A.** 145 nM

**Q.** And the IC50 [2]?
**A.** 158 nM

**Q.** And the IC50 [3]?
**A.** 53.3 nM

**Q.** And the IC50 [4]?
**A.** 20 nM

**Q.** Which results are given for C=CC(=O)N1CCC(N[C@H]2CCc3cc(-n4c(-c5cccnc5N)nc5ccc(N6CC[C@H](F)C6)nc54)ccc32)CC1 [Example 226, 1-(4-{[(1S)-5-[2-(2-aminopyridin-3-yl)-5-[(3S)-3-fluoropyrrolidin-1-yl]imidazo[4,5-b]pyridin-3-yl]-2,3-dihydro-1H-inden-1-yl]amino}piperidin-1-yl)prop-2-en-1-one]?
**A.** IC50 ([1]; Homo sapiens, LAPC4, 72 h): 276 nM; IC50 [2]: 68.9 nM; IC50 [3]: 22.5 nM; IC50 [4]: 105 nM

**Q.** What does the source list for C=CC(=O)N1CCc2c(C(=O)N[C@H]3CCc4cc(-n5c(-c6cccnc6N)nc6ccc(-n7cccn7)nc65)ccc43)cccc21 [Example 3, N-[(1S)-5-[2-(2-aminopyridin-3-yl)-5-(pyrazol-1-yl)imidazo[4,5-b]pyridin-3-yl]-2,3-dihydro-1H-inden-1-yl]-1-(prop-2-enoyl)-2,3-dihydroindole-4-carboxamide]?
**A.** IC50 ([1]; Homo sapiens, LAPC4, 72 h): 833 nM; IC50 [2]: 70 nM; IC50 [3]: 32.8 nM; IC50 [4]: 15.1 nM

**Q.** What does the source list for C=CC(=O)N1CCC(F)(CN[C@H]2CCc3cc(-n4c(-c5cccnc5N)nc5ccc(-n6cccn6)nc54)ccc32)CC1 [Example 184, (S)-1-(4-(((5-(2-(2-aminopyridin-3-yl)-5-(1H-pyrazol-1-yl)-3H-imidazo[4,5-b]pyridin-3-yl)-2,3-dihydro-1H-inden-1-yl)amino)methyl)-4-fluoropiperidin-1-yl)prop-2-en-1-one]?
**A.** IC50 ([1]; Homo sapiens, LAPC4, 72 h): 184 nM; IC50 [2]: 27.2 nM; IC50 [3]: 17.8 nM; IC50 [4]: 104 nM

**Q.** With C=CC(=O)NCc1ccccc1C(=O)N[C@H]1CCc2cc(-n3c(-c4cccnc4N)nc4ccc(-n5cccn5)nc43)ccc21 [Example 71, N-[(1S)-5-[2-(2-aminopyridin-3-yl)-5-(pyrazol-1-yl)imidazo[4,5-b]pyridin-3-yl]-2,3-dihydro-1H-inden-1-yl]-2-(prop-2-enamidomethyl)benzamide] as the compound, how does the IC50 ([1]; Homo sapiens, LAPC4, 72 h) read?
**A.** 29.8 nM

**Q.** What about the IC50 [2] of the same compound?
**A.** 31.8 nM

**Q.** What about the IC50 [3] of the same compound?
**A.** 9.43 nM

**Q.** And the IC50 [4]?
**A.** 11.5 nM

**Q.** Which results are given for C=CC(=O)N1CC2(CCCC(N[C@H]3CCc4cc(-n5c(-c6cccnc6N)nc6ccc(-n7cccn7)nc65)ccc43)C2)C1 (single isomer, unassigned) [Example 78, 1-((*)-6-(((S)-5-(2-(2-aminopyridin-3-yl)-5-(1H-pyrazol-1-yl)-3H-imidazo[4,5-b]pyridin-3-yl)-2,3-dihydro-1H-inden-1-yl)amino)-2-azaspiro[3.5]nonan-2-yl)prop-2-en-1-one]?
**A.** IC50 ([1]; Homo sapiens, LAPC4, 72 h): 212 nM; IC50 [2]: 136 nM; IC50 [3]: 63 nM; IC50 [4]: 22 nM

**Q.** Which results are given for CN(C)C/C=C/C(=O)N1CCC(N[C@H]2CCc3cc(-n4c(-c5cccnc5N)nc5ccc(-n6cccn6)nc54)ccc32)CC1 [Example 34, (2E)-1-(4-{[(1S)-5-[2-(2-aminopyridin-3-yl)-5-(pyrazol-1-yl)imidazo[4,5-b]pyridin-3-yl]-2,3-dihydro-1H-inden-1-yl]amino}piperidin-1-yl)-4-(dimethylamino)but-2-en-1-one]?
**A.** IC50 ([1]; Homo sapiens, LAPC4, 72 h): 398 nM; IC50 [2]: 1200 nM; IC50 [3]: 194 nM; IC50 [4]: 55.1 nM

**Q.** What does the source list for Nc1ncccc1-c1nc2ccc(-n3cccn3)nc2n1-c1ccc2c(c1)CC[C@@H]2NC1CCN(C(=O)[C@H]2CO2)CC1 [Example 122, 3-{3-[(1S)-1-({1-[(2R)-oxirane-2-carbonyl]piperidin-4-yl}amino)-2,3-dihydro-1H-inden-5-yl]-5-(pyrazol-1-yl)imidazo[4,5-b]pyridin-2-yl}pyridin-2-amine]?
**A.** IC50 ([1]; Homo sapiens, LAPC4, 72 h): 116 nM; IC50 [2]: 305 nM; IC50 [3]: 112 nM; IC50 [4]: 41.3 nM

**Q.** How did the IC50 ([1]; Homo sapiens, LAPC4, 72 h) turn out when C=CC(=O)Nc1cnccc1C(=O)N[C@H]1CCc2cc(-n3c(-c4cccnc4N)nc4ccc(-n5cccn5)nc43)ccc21 [Example 41, N-[(1S)-5-[2-(2-aminopyridin-3-yl)-5-(pyrazol-1-yl)imidazo[4,5-b]pyridin-3-yl]-2,3-dihydro-1H-inden-1-yl]-3-(prop-2-enamido)pyridine-4-carboxamide] was run?
**A.** 9840 nM

**Q.** And the IC50 [2]?
**A.** 5060 nM

**Q.** And the IC50 [3]?
**A.** > 1000 nM

**Q.** And the IC50 [4]?
**A.** 305 nM

**Q.** What does the source list for C=CC(=O)N1CCC(N[C@H]2CCc3cc(-n4c(-c5cccnc5N)nc5ccc(C6CC6)nc54)ccc32)C(C)C1 (single isomer, unassigned) [Example 231, 1-((3*,4*)-4-(((S)-5-(2-(2-aminopyridin-3-yl)-5-cyclopropyl-3H-imidazo[4,5-b]pyridin-3-yl)-2,3-dihydro-1H-inden-1-yl)amino)-3-methylpiperidin-1-yl)prop-2-en-1-one]?
**A.** IC50 ([1]; 72 h): 398 nM; IC50 [2]: 174 nM; IC50 [3]: 74.8 nM; IC50 [4]: 1220 nM

**Q.** How did the IC50 ([1]; 72 h) turn out when C=CC(=O)N1CCC(N[C@H]2CCc3cc(-n4c(-c5cccnc5N)nc5ccc(-n6cccn6)nc54)ccc32)C(C#N)C1 (single isomer, unassigned) [Example 155, (3*,4*)-1-acryloyl-4-(((S)-5-(2-(2-aminopyridin-3-yl)-5-(1H-pyrazol-1-yl)-3H-imidazo[4,5-b]pyridin-3-yl)-2,3-dihydro-1H-inden-1-yl)amino)piperidine-3-carbonitrile] was run?
**A.** 490 nM

**Q.** What about the IC50 [2] of the same compound?
**A.** 1230 nM

**Q.** What about the IC50 [3] of the same compound?
**A.** > 1000 nM

**Q.** What about the IC50 [4] of the same compound?
**A.** 83.6 nM

**Q.** With C=CC(=O)N1CCC(NC2c3ccc(-n4c(-c5cccnc5N)nc5ccc(-n6cccn6)nc54)cc3CC2O)CC1 (single isomer, unassigned) [Example 150, 1-(4-(((1*,2*)-5-(2-(2-aminopyridin-3-yl)-5-(1H-pyrazol-1-yl)-3H-imidazo[4,5-b]pyridin-3-yl)-2-hydroxy-2,3-dihydro-1H-inden-1-yl)amino)piperidin-1-yl)prop-2-en-1-one] as the compound, how does the IC50 ([1]; 72 h) read?
**A.** 478 nM

**Q.** What about the IC50 [2] of the same compound?
**A.** 781 nM

**Q.** What about the IC50 [3] of the same compound?
**A.** 213 nM

**Q.** And the IC50 [4]?
**A.** 31.1 nM

**Q.** For C=CC(=O)Nc1ccccc1C(=O)N[C@H]1CCc2cc(-n3c(-c4cccnc4N)nc4ccc(-n5cccn5)nc43)ccc21 [Example 1, (S)-2-acrylamido-N-(5-(2-(2-aminopyridin-3-yl)-5-(1H-pyrazol-1-yl)-3H-imidazo[4,5-b]pyridin-3-yl)-2,3-dihydro-1H-inden-1-yl)benzamide], which IC50 ([1]; Homo sapiens, LAPC4, 72 h) is on record?
**A.** 25.4 nM

**Q.** What about the IC50 [2] of the same compound?
**A.** 35 nM

**Q.** What about the IC50 [3] of the same compound?
**A.** 12.2 nM

**Q.** And the IC50 [4]?
**A.** 11.7 nM

**Q.** C=CC(=O)N1CCC(N[C@H]2CCc3cc(-n4c(-c5cccnc5N)nc5ccc(-c6nccs6)nc54)ccc32)CC1 [Example 159, 1-(4-{[(1S)-5-[2-(2-aminopyridin-3-yl)-5-(1,3-thiazol-2-yl)imidazo[4,5-b]pyridin-3-yl]-2,3-dihydro-1H-inden-1-yl]amino}piperidin-1-yl)prop-2-en-1-one] was tested. Which IC50 ([1]; Homo sapiens, LAPC4, 72 h) did it give?
**A.** 71.2 nM

**Q.** What about the IC50 [2] of the same compound?
**A.** 146 nM

**Q.** And the IC50 [3]?
**A.** 56.2 nM

**Q.** And the IC50 [4]?
**A.** 20 nM

**Q.** Which results are given for C=CC(=O)N1CCC(N[C@@H]2c3ccc(-n4c(-c5cccnc5N)nc5ccc(-n6cccn6)nc54)cc3CC2F)C(C)C1 (single isomer, unassigned) [Example 290, 1-[(3*,4*)-4-{[(1R,2*)-5-[2-(2-aminopyridin-3-yl)-5-(pyrazol-1-yl)imidazo[4,5-b]pyridin-3-yl]-2-fluoro-2,3-dihydro-1H-inden-1-yl]amino}-3-methylpiperidin-1-yl]prop-2-en-1-one]?
**A.** IC50 ([1]; 72 h): 455 nM; IC50 [2]: 122 nM; IC50 [3]: 19.4 nM; IC50 [4]: 666 nM
